Measured values from US9963445B2, “Chemical compounds” (SYNGENTA PARTICIPATIONS AG, priority 2013, dated 2018).

Key:
Format in all cases: in vivo
Alopecurus myosuroides [1] = test: Pre-emergence herbicidal activity, glasshouse pot test; conditions: pre-emergence spray, rate 1000 g/ha, evaluated after 13 days, scale 0-5
How it was run: (§1)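 Test species were sown in pots and, after one day under controlled glasshouse conditions, treated with an aqueous spray of the active ingredient in acetone/water containing 0.5% Tween 20. Evaluation followed 13 days later, scoring plant damage from 0 (none) to 5 (total).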

Amaranthus retroflexus [2] = test: as above; conditions: pre-emergence spray, rate 1000 g/ha, evaluated after 13 days, scale 0-5
How it was run: as §1

Echinochloa crus-galli [3] = test: as above; conditions: pre-emergence spray, rate 1000 g/ha, evaluated after 13 days, scale 0-5
How it was run: as §1

Setaria faberi [4] = test: as above; conditions: pre-emergence spray, rate 1000 g/ha, evaluated after 13 days, scale 0-5
How it was run: as §1

Solanum nigrum [5] = test: as above; conditions: pre-emergence spray, rate 1000 g/ha, evaluated after 13 days, scale 0-5
How it was run: as §1

zea mays [6] = test: as above; conditions: pre-emergence spray, rate 1000 g/ha, evaluated after 13 days, scale 0-5
How it was run: as §1

Alopecurus myosuroides [7] = test: Post-emergence herbicidal activity, glasshouse pot test; set-up: key: 0 = no damage to plant, 5 = total damage to plant; conditions: Application post-emergence, rate 1000 g/ha, evaluated after 13 days
How it was run: (§2)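 Damage rated 0 (none) to 5 (total) 13 days after spraying. Plants were treated post-emergence at 8 days after sowing, using an acetone/water (50:50) formulation with 0.5% Tween 20 diluted to an aqueous spray.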

Amaranthus retroflexus [8] = test: as above; set-up: key: 0 = no damage to plant, 5 = total damage to plant; conditions: Application post-emergence, rate 1000 g/ha, evaluated after 13 days
How it was run: as §2

Echinochloa crus-galli [9] = test: as above; set-up: key: 0 = no damage to plant, 5 = total damage to plant; conditions: Application post-emergence, rate 1000 g/ha, evaluated after 13 days
How it was run: as §2

Setaria faberi [10] = test: as above; set-up: key: 0 = no damage to plant, 5 = total damage to plant; conditions: Application post-emergence, rate 1000 g/ha, evaluated after 13 days
How it was run: as §2

zea mays [11] = test: as above; set-up: key: 0 = no damage to plant, 5 = total damage to plant; conditions: Application post-emergence, rate 1000 g/ha, evaluated after 13 days
How it was run: as §2

Solanum nigrum [12] = test: as above; conditions: Application post-emergence, rate 1000 g/ha, evaluated after 13 days
Description: Seeds of a variety of test species were sown in standard soil in pots. After 8 days cultivation (post-emergence) under controlled conditions in a glasshouse (at 24/16° C., day/night; 14 hours light; 65% humidity), the plants were sprayed with an aqueous spray solution derived from the formulation of the technical active ingredient in acetone/water (50:50) solution containing 0.5% Tween 20 (polyoxyethelyene sorbitan monolaurate, CAS RN 9005-64-5). The test plants were then grown in a glasshouse under controlled conditions (at 24/16° C., day/night; 14 hours light; 65% humidity) and watered twice daily. After 13 days, the test was evaluated (5=total damage to plant; 0=no damage to plant).
ABUTH=Abutilon theophrasti; SOLNI=Solanum nigrum; AMARE=Amaranthus retroflexus; SETFA=Setaria faberi; ALOMY=Alopecurus myosuroides; ECHCG=Echinochloa crus-galli, ZEAMX=zea mays.

Abutilon theophrasti [13] = test: Pre-emergence herbicidal activity, glasshouse pot test; conditions: pre-emergence spray, rate 1000 g/ha, evaluated after 13 days, scale 0-5
How it was run: as §1

Abutilon theophrasti [14] = test: Post-emergence herbicidal activity, glasshouse pot test; set-up: key: 0 = no damage to plant, 5 = total damage to plant; conditions: Application post-emergence, rate 1000 g/ha, evaluated after 13 days
How it was run: as §2

| SMILES | ALOMY damage score, application pre-emergence (Alopecurus myosuroides [1]) | AMARE damage score, application pre-emergence (Amaranthus retroflexus [2]) | ECHCG damage score, application pre-emergence (Echinochloa crus-galli [3]) | SETFA damage score, application pre-emergence (Setaria faberi [4]) | SOLNI damage score, application pre-emergence (Solanum nigrum [5]) | ZEAMX damage score, application pre-emergence (zea mays [6]) | ALOMY herbicidal damage score (Alopecurus myosuroides [7]) | AMARE herbicidal damage score (Amaranthus retroflexus [8]) | ECHCG herbicidal damage score (Echinochloa crus-galli [9]) | SETFA herbicidal damage score (Setaria faberi [10]) | ZEAMX herbicidal damage score (zea mays [11]) | SOLNI herbicidal damage score (Solanum nigrum [12]) | ABUTH damage score, application pre-emergence (Abutilon theophrasti [13]) | ABUTH herbicidal damage score (Abutilon theophrasti [14]) |
| --- | --- | --- | --- | --- | --- | --- | --- | --- | --- | --- | --- | --- | --- | --- |
| CC1=C(Cl)C(=O)N(c2ccc(Cl)cn2)C1O (stereo not drawn) [AF65] | 2 | 5 | 1 | 2 | 4 | 0 | 4 | 5 | 4 | 5 | 1 | 5 |  |  |
| CC1=C(Cl)C(=O)N(c2cc(Cl)ccn2)C1O (stereo not drawn) [AF66] | 2 | 5 | 2 | 3 | 5 | 0 | 4 | 5 | 4 | 5 | 2 | 5 |  |  |
| CC1=C(Cl)C(=O)N(c2ccc(F)cn2)C1O (stereo not drawn) [AF67] | 2 | 5 | 1 | 3 | 3 | 0 | 3 | 5 | 4 | 4 | 1 | 5 |  |  |
| CCCC1=C(Cl)C(=O)N(c2cc(C(C)(C)C#N)ncn2)C1O (stereo not drawn) [CF22] | 2 | 5 | 5 | 4 |  | 2 | 5 | 5 | 5 | 5 | 3 |  | 5 | 5 |
| CC1=C(Br)C(=O)N(c2cc(C(F)(F)F)ncn2)C1O (stereo not drawn) [CG1] | 3 | 1 | 5 | 4 |  | 0 | 5 | 2 | 5 | 5 | 3 |  | 4 | 4 |
| CCC1=C(Br)C(=O)N(c2cc(C(C)(C)C#N)ncn2)C1O (stereo not drawn) [CG2] | 2 | 4 | 4 | 3 |  | 2 | 5 | 5 | 5 | 5 | 5 |  | 5 | 5 |
| CC1=C(Br)C(=O)N(c2cc(C(C)(C)C#N)ncn2)C1O (stereo not drawn) [CG3] | 4 | 5 | 4 | 5 |  | 3 | 5 | 5 | 5 | 5 | 3 |  | 4 | 5 |
| COC1=C(OC)C(O)N(c2cc(C(F)(F)F)ncn2)C1=O (stereo not drawn) [CK4] | 4 | 4 | 4 | 5 |  | 3 | 5 | 3 | 5 | 5 | 4 |  | 5 | 5 |
| CC1=C(Cl)C(=O)N(c2nccc(C(F)(F)F)n2)C1O (stereo not drawn) [DF1] | 4 | 5 | 4 | 4 |  | 2 | 4 | 5 | 5 | 5 | 4 |  | 4 | 5 |
| CC1=C(Cl)C(=O)N(c2nccc(C(C)(C)C)n2)C1O (stereo not drawn) [DF2] | 4 | 5 | 5 | 5 |  | 2 | 5 | 5 | 5 | 5 | 1 |  | 5 | 5 |
| CCOc1nc(N2C(=O)C(Cl)=C(C)C2O)ncc1C#N (stereo not drawn) [DF4] | 0 | 0 | 0 | 0 |  | 0 | 0 | 0 | 0 | 0 | 0 |  | 0 | 0 |
| CC1=C(Cl)C(=O)N(c2nccc(C(C)(C)C#N)n2)C1O (stereo not drawn) [DF5] | 4 | 5 | 5 | 4 |  | 3 | 4 | 5 | 5 | 4 | 3 |  | 5 | 5 |
| CC1=C(Cl)C(=O)N(c2ncc(C#N)c(C(C)(C)C)n2)C1O (stereo not drawn) [DF6] | 3 | 5 | 4 | 4 |  | 2 | 4 | 5 | 5 | 5 | 1 |  | 2 | 5 |
| COC1=C(C)C(O)N(c2nccc(C(C)(C)C)n2)C1=O (stereo not drawn) [DI1] | 3 | 5 | 5 | 5 |  | 2 | 5 | 5 | 5 | 5 | 1 |  | 5 | 5 |
| CCOC(=O)c1cnc(N2C(=O)C(OC)=C(C)C2O)nc1C(F)(F)F (stereo not drawn) [DI2] | 4 | 5 | 5 | 5 |  | 3 | 4 | 5 | 5 | 5 | 4 |  | 5 | 5 |
